The record followed here is patent publication US20050197350A1, “Novel quinoline, tetrahydroquinazoline, and pyrimidine derivatives and methods of treatment related to the use thereof” (TAISHO PHARMACEUTICAL CO., LTD., priority 2003, published 2005).

The first test deals with MCH receptors. Put plainly: MCH receptor activity class (method not given). Conditions: MCH receptor activity class 1-3 (percent of control at 10^-7 M or IC50).
For `Cc1onc(-c2ccccc2)c1NC(=S)N[C@H]1CC[C@@H](Nc2nccc(N(C)C)n2)CC1` [compound 2354], the class was 3 (Class 3 The value of percent of control at 10^−7 M was more than 60% or the value of IC50 was more than 200 nM.).

Still in this test, the particulars now being: MCH receptor; class by percent of control at 10^-7 M or IC50.
Turning to `CN(C)c1nc(N[C@H]2CC[C@@H](NC(=S)NC3CCCC3)CC2)nc2c1CCCC2` [compound 1932], the class was 3 (Class 3 The value of percent of control at 10^−7 M was more than 60% or the value of IC50 was more than 200 nM.). Still for that read-out and setting: then `Cc1ccc(CCNC(=S)N[C@H]2CC[C@@H](Nc3nc4c(c(N(C)C)n3)CCCC4)CC2)cc1` [compound 2052], with 3 (Class 3 The value of percent of control at 10^−7 M was more than 60% or the value of IC50 was more than 200 nM.); and `CN(C)c1cc(N[C@H]2CC[C@@H](NC(=O)COc3c(F)c(F)c(F)c(F)c3F)CC2)nc2ccccc12` [compound 122], with 3 (Class 3 The value of percent of control at 10^−7 M was more than 60% or the value of IC50 was more than 200 nM.).

The same test, now with this note: activity class per percent of control at 10^-7 M or IC50.
Regarding `CCOc1cc(CN[C@H]2CC[C@@H](Nc3cc(N(C)C)c4ccccc4n3)CC2)ccc1OC` [compound 1097], the class is recorded as 3 (Class 3 The value of percent of control at 10^−7 M was more than 60% or the value of IC50 was more than 200 nM.).

`C[C@H](C(=O)N[C@H]1CC[C@@H](Nc2nc3c(c(N(C)C)n2)CCCC3)CC1)c1ccc(-c2ccccc2)c(F)c1` [compound 1016]: the class is listed as 2 (Class 2: The value of percent of control at 10^−7 M was from 40% to 60% or the value of IC′50 was from 50 nM to 200 nM.). Turning to `CN(C)c1nc(N[C@H]2CC[C@@H](NC(=O)c3ccc(C(F)(F)F)c(F)c3)CC2)nc2c1CCCC2` [compound 1048], the class is 3 (Class 3 The value of percent of control at 10^−7 M was more than 60% or the value of IC50 was more than 200 nM.). Same read-out and setting: for `COc1cc(CNC[C@H]2CC[C@@H](Nc3cc(N(C)C)c4ccccc4n3)CC2)cc(OC)c1OC` [compound 1136] the value was 3 (Class 3 The value of percent of control at 10^−7 M was more than 60% or the value of IC50 was more than 200 nM.).

Still in this test, the particulars now being: class 1-3 by percent of control at 10^-7 M or IC50.
On to `CN(C)c1nc(N[C@H]2CC[C@@H](NC(=O)c3cccc([N+](=O)[O-])c3)CC2)nc2c1CCCC2` [compound 480], for which the class is 1 (Class 1: The value of percent of control at 10^−7 M was less than 40% or the value of IC50 was less than 50 nM.). On to `CN(C)c1nc(N[C@H]2CC[C@@H](NC(=O)c3cnc4ccccc4n3)CC2)nc2c1CCCC2` [compound 550], for which the class is 1 (Class 1: The value of percent of control at 10^−7 M was less than 40% or the value of IC50 was less than 50 nM.). Regarding `CN(C)c1ccnc(N[C@H]2CC[C@@H](CNC(=O)c3ccccc3SC(F)F)CC2)n1` [compound 427], the class is recorded as 3 (Class 3 The value of percent of control at 10^−7 M was more than 60% or the value of IC50 was more than 200 nM.).

The test is the same for the next values; noted with them: class by percent of control at 10^-7 M or IC50.
For `CN(C)c1cc(N[C@H]2CC[C@@H](CNC(=O)Cc3ccc(F)cc3Cl)CC2)nc2ccccc12` [compound 790], the class is 3 (Class 3 The value of percent of control at 10^−7 M was more than 60% or the value of IC50 was more than 200 nM.). Take `CN(C)c1ccnc(N[C@H]2CC[C@@H](CNC(=O)c3ccc(I)cc3)CC2)n1` [compound 386]: the class is listed as 3 (Class 3 The value of percent of control at 10^−7 M was more than 60% or the value of IC50 was more than 200 nM.). Still for that read-out and setting: for `CN(C)c1ccnc(N[C@H]2CC[C@@H](NC(=O)Nc3ccc(F)cc3F)CC2)n1` [compound 2181] the value was 3 (Class 3 The value of percent of control at 10^−7 M was more than 60% or the value of IC50 was more than 200 nM.).

As to `CN(C)c1cc(N[C@H]2CC[C@@H](NC(=S)Nc3c(Cl)cc(Cl)cc3Cl)CC2)nc2ccccc12` [compound 2274, N-(cis-4-{[4-(dimethylamino)quinolin-2-yl]amino}cyclohexyl)-N′-(2,4,6-trichlorophenyl)thiourea], the class was 2 (Class 2: The value of percent of control at 10^−7 M was from 40% to 60% or the value of IC′50 was from 50 nM to 200 nM.). On the same count and under the same terms, for “(2-{[4-(4-Dimethylamino-5,6,7,8-tetrahydro-quinazolin-2-ylamino)-cyclohexylamino]-methyl}-cyclohexyl)-phenyl-methanol [compound 1492]” the value was 3 (Class 3 The value of percent of control at 10^−7 M was more than 60% or the value of IC50 was more than 200 nM.).

Turning to `CN(C)c1cc(N[C@H]2CC[C@@H](NC(=O)Cc3c(Cl)ccc(Cl)c3Cl)CC2)nc2ccccc12` [compound 674, N-(cis-4-{[4-(dimethylamino)quinolin-2-yl]amino}cyclohexyl)-2-(2,3,6-trichlorophenyl)acetamide], the class is given as 3 (Class 3 The value of percent of control at 10^−7 M was more than 60% or the value of IC50 was more than 200 nM.). Same read-out and setting: then `CN(C)c1ccnc(N[C@H]2CC[C@@H](NC(=O)C(CC(=O)c3ccc(Cl)cc3)SCc3ccc(Cl)cc3)CC2)n1` (relative stereo) [compound 881], with 3 (Class 3 The value of percent of control at 10^−7 M was more than 60% or the value of IC50 was more than 200 nM.). Same read-out and setting: for `CN(C)c1nc(N[C@H]2CC[C@@H](NC(=O)c3ccccc3Cc3ccccc3)CC2)nc2c1CCCC2` [compound 961] the value was 2 (Class 2: The value of percent of control at 10^−7 M was from 40% to 60% or the value of IC′50 was from 50 nM to 200 nM.). On the same count and under the same terms, for `CN(C)c1ccnc(N[C@H]2CC[C@@H](NC(=O)NC3C[C@H]3c3ccccc3)CC2)n1` (some centres unmarked) [compound 2221] the value was 3 (Class 3 The value of percent of control at 10^−7 M was more than 60% or the value of IC50 was more than 200 nM.); for `CN(C)c1ccnc(N[C@H]2CC[C@@H](NC(=O)Cc3ccccc3I)CC2)n1` [compound 820], 3 (Class 3 The value of percent of control at 10^−7 M was more than 60% or the value of IC50 was more than 200 nM.); for `Cc1cccc(C(C)(C)C)c1NC(=O)N[C@H]1CC[C@@H](Nc2nccc(N(C)C)n2)CC1` [compound 2203], 3 (Class 3 The value of percent of control at 10^−7 M was more than 60% or the value of IC50 was more than 200 nM.). For the molecule `CN(C)c1ccnc(N[C@H]2CC[C@@H](NC(=O)c3cccc4ccccc34)CC2)n1` [compound 327], the class is 3 (Class 3 The value of percent of control at 10^−7 M was more than 60% or the value of IC50 was more than 200 nM.).

Staying with this test, now noted: class by percent of control at 10^−7 M or IC50.
Consider `Cc1cc(N(C)C)nc(N[C@H]2CC[C@@H](C(=O)NCc3ccc(F)cc3F)CC2)n1` [compound 2818, cis-N-(2,4-difluorobenzyl)-4-{[4-(dimethylamino)-6-methylpyrimidin-2-yl]amino}cyclohexanecarboxamide], for which the class is on record as 1 (Class 1: The value of percent of control at 10^−7 M was less than 40% or the value of IC50 was less than 50 nM.). `Cc1cnc(N[C@H]2CC[C@@H](NC(=O)c3cccc(OC(C)C)c3)CC2)nc1N(C)C` [compound 2928, N-(cis-4-{[4-(dimethylamino)-5-methylpyrimidin-2-yl]amino}cyclohexyl)-3-isopropoxybenzamide]: the class was 2 (Class 2: The value of percent of control at 10^−7 M was from 40% to 60% or the value of IC′50 was from 50 nM to 200 nM.).

On to `Cc1nc(N[C@H]2CC[C@@H](NC(=O)c3cccc(OC(C)C)c3)CC2)nc(N(C)C)c1C` [compound 2862], for which the class is 1 (Class 1: The value of percent of control at 10^−7 M was less than 40% or the value of IC50 was less than 50 nM.).
